In US10849893B2 (Athenex HK Innovative Limited, priority 2018, dated 2020):
Values joined by “and” are separate entries in the source; they are usually repeats but may differ in a detail not shown here. Equal values may be shown once. Read-outs that look alike come from different tables or passages of the source.

Assays:
[1] = for Reported half-life: individual values, sampling to 168 h, LLOQ 0.2 ng/mL
Procedure: A 2-part study was conducted in subjects with solid tumors (“Study 2”). […] The dose levels increased to 75 mg/m^2, 150 mg/m^2, 225 mg/m^2, 300 mg/m^2, 375 mg/m^2, and 400 mg/m^2. In the second part of this study, half of the group starting at a selected dose from stage 1, was given over two consecutive days every three weeks. A total of 15 (n=40) subjects enrolled in this study.
All subject PK data within the dataset were analyzed using Phoenix 8.0. […] Individual time points for the terminal slope were automatically selected by the software, and linear up—log down interpolation calculation method was used for the analysis. Individual BLQ samples were set to 0.00 ng/ml for noncompartmental analysis unless the PK sample occurred between two PK samples above the limit of quantification, in which case the PK sample was set to missing. For the calculation of summary statistics and mean concentration figures, all BLQ samples were set to 0.00 ng/ml.

[2] = Two phase 1 studies of docetaxel capsules administered orally in combination with HM30181A; assay type: in vivo, human
[3] = oral 35 mg/m^2 with Compound A, Mean, N=4
[4] = oral 35 mg/m^2 with Compound A, individual subjects
[5] = oral 75 mg/m^2 with Compound A, Mean, N=3
[6] = oral 75 mg/m^2 with Compound A, individual subjects
[7] = oral 75 mg/m^2 with Compound A, individual subjects, listed as Docetaxel
[8] = oral 150 mg/m^2 with Compound A, individual subjects
[9] = oral 225 mg/m^2 with Compound A, Mean, N=3
[10] = oral 225 mg/m^2 with Compound A, individual subjects
[11] = male, human, in vivo, po, 75 mg/m2
[12] = mean oral (75 mg/m^2) as % of mean IV (60 mg/m^2)
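Throughout, for AUC % Extrapobs: noncompartmental pharmacokinetic analysis in subjects with solid tumors, using linear-up log-down interpolation, with terminal slope time points picked automatically by the software.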
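Throughout, for AUC0-12: noncompartmental pharmacokinetic analysis in subjects with solid tumors, using linear-up log-down interpolation, with terminal slope time points picked automatically by the software.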
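Throughout, for AUC0-24: noncompartmental pharmacokinetic analysis in subjects with solid tumors, using linear-up log-down interpolation, with terminal slope time points picked automatically by the software.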
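Throughout, for AUC0-48: noncompartmental pharmacokinetic analysis in subjects with solid tumors, using linear-up log-down interpolation, with terminal slope time points picked automatically by the software.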

CC(=O)O[C@@]12CO[C@@H]1C[C@H](O)[C@@]1(C)C(=O)[C@H](O)C3=C(C)[C@@H](OC(=O)[C@H](O)[C@@H](NC(=O)OC(C)(C)C)c4ccccc4)C[C@@](O)([C@@H](OC(=O)c4ccccc4)[C@H]21)C3(C)C [docetaxel, (2aR,4S,4aS,6R,9S,11S,12S,12aR,12b S)-12b-acetoxy-9-(((2R,3S)-3-((tert-butoxycarbonyl)amino)-2-hydroxy-3-phenylpropanoyl)oxy)-4,6,11-trihydroxy-4a,8,13,13-tetramethyl-5-oxo-2a,3,4,4a,5,6,9,10,11,12,12a, 12b-dodecahydro-1H-7,11-methanocyclodeca[3,4]benzo[1,2-b]oxet-12-yl benzoate]
AUC % Extrapobs [1, 3]: 7.51% | Tmax [1, 3]: 1.50 h | AUC0-12 [1, 4]: 145 ng·h/mL and 39.8 ng·h/mL and 198 ng·h/mL and 353 ng·h/mL | AUC0-24 [1, 4]: 178 ng·h/mL and 46.1 ng·h/mL and 227 ng·h/mL and 392 ng·h/mL | AUC0-48 [1, 4]: 218 ng·h/mL and 46.1 ng·h/mL and 257 ng·h/mL and 440 ng·h/mL | AUC % Extrapobs [1, 4]: 7.76% and 11.4% and 3.39% and 7.45% | AUCINF—obs [1, 4]: 259 ng·h/mL and 44.9 ng·h/mL and 279 ng·h/mL and 599 ng·h/mL | Cmax [1, 4]: 38.0 ng/mL and 73.0 ng/mL and 157 ng/mL and 8.59 ng/mL | Tmax [1, 4]: 2.00 h and 1.00 h | t1/2 [1, 4]: 22.8 h and 3.40 h and 19.1 h and 65.3 h | AUC0-24 ([1]; oral 35 mg/m^2 with Compound A, individual subjects by cancer diagnosis): 170 to 392 ng·h/mL | AUC0-24 ([1]; oral 35 mg/m^2 with Compound A, individual subjects by cancer diagnosis, listed as Docetaxel): 170 ng·h/mL and 227 ng·h/mL and 392 ng·h/mL | Reported half-life ([1]; oral 75 mg/m^2): 62.4 h and 45.8 h | Average Time above Target (0 to last time point measured above 4 ng/ml) ([1]; oral 75 mg/m^2 SD): 21.5 h | Dose Normalized AUC ([1]; oral 75 mg/m^2 with Compound A): 38.23 | AUC0-12 [1, 5]: 512 ng·h/mL | AUC0-24 [1, 5]: 598 ng·h/mL | AUC % Extrapobs [1, 5]: 3.89% | Tmax [1, 5]: 2.00 h | Cmax [1, 6]: 81.6 to 190 ng/mL | Tmax [1, 6]: 2.00 h | AUC0-24 ([1]; oral 75 mg/m^2 with Compound A, individual subjects by cancer diagnosis): 304 to 1030 ng·h/mL | AUC0-24 ([1]; oral 75 mg/m^2 with Compound A, individual subjects by cancer diagnosis, listed as Docetaxel): 461 ng·h/mL and 304 ng·h/mL and 1030 ng·h/mL | AUC0-12 [1, 7]: 390 ng·h/mL and 270 ng·h/mL and 875 ng·h/mL | AUC0-24 [1, 7]: 461 ng·h/mL and 304 ng·h/mL and 1030 ng·h/mL | AUC0-48 [1, 7]: 543 ng·h/mL and 334 ng·h/mL and 1150 ng·h/mL | AUC % Extrapobs [1, 7]: 4.31% and 4.87% and 2.50% | AUCINF—obs [1, 7]: 690 ng·h/mL and 409 ng·h/mL and 1350 ng·h/mL | Cmax [1, 7]: 165 ng/mL and 81.6 ng/mL and 190 ng/mL and 270 ng/mL | t1/2 [1, 7]: 62.1 h and 45.8 h | Reported half-life ([1]; oral 150 mg/m^2): 53.3 h and 63.3 h | Average Time above Target (0 to last time point measured above 4 ng/ml) ([1]; oral 150 mg/m^2 SD): 15.5 h | Dose Normalized AUC ([1]; oral 150 mg/m^2 with Compound A): 26.70 | AUC0-12 [1, 8]: 898 ng·h/mL and 650 ng·h/mL | AUC0-24 [1, 8]: 1050 ng·h/mL and 720 ng·h/mL and 490 ng·h/mL | AUC0-48 [1, 8]: 1150 ng·h/mL and 775 ng·h/mL and 538 ng·h/mL | AUC % Extrapobs [1, 8]: 5.59% and 2.53% and 5.32% | AUCINF—obs [1, 8]: 1380 ng·h/mL and 876 ng·h/mL and 673 ng·h/mL | Cmax [1, 8]: 136 ng/mL and 112 ng/mL | Tmax [1, 8]: 2.00 h and 4.00 h | t1/2 [1, 8]: 63.3 h | AUC0-24 ([1]; oral 150 mg/m^2 with Compound A, individual subjects by cancer diagnosis): 490 to 1050 ng·h/mL | AUC0-24 ([1]; oral 150 mg/m^2 with Compound A, individual subjects by cancer diagnosis, listed as Docetaxel): 1050 ng·h/mL and 720 ng·h/mL and 490 ng·h/mL | AUC0-12 [1, 9]: 618 ng·h/mL | AUC % Extrapobs [1, 9]: 4.93% | Cmax [1, 9]: 114 ng/mL | Tmax [1, 9]: 1.00 h | AUC0-12 [1, 10]: 835 ng·h/mL and 380 ng·h/mL and 637 ng·h/mL | AUC0-24 [1, 10]: 416 ng·h/mL and 974 ng·h/mL | AUC0-48 [1, 10]: 1100 ng·h/mL and 443 ng·h/mL and 1200 ng·h/mL | AUC % Extrapobs [1, 10]: 6.48% and 3.06% and 5.26% | AUCINF—obs [1, 10]: 1390 ng·h/mL and 517 ng·h/mL and 1650 ng·h/mL | Cmax [1, 10]: 139 ng/mL and 84.7 ng/mL | Tmax [1, 10]: 2.00 h | t1/2 [1, 10]: 46.1 h | AUC ([2]; human, plasma, iv, 75 mg/m2, IV 75 mg/m^2): 2420 ng·h/mL | AUC ([2]; human, plasma, po, oral 35 mg/m^2 with HM30181A 15 mg): 248 ng·h/mL | AUC ([2]; human, plasma, po, oral 75 mg/m^2 with HM30181A 15 mg): 692 ng·h/mL | AUC ([2]; human, plasma, po, oral 150 mg/m^2 with HM30181A 15 mg): 888 ng·h/mL | AUC ([2]; human, plasma, po, oral 225 mg/m^2 with HM30181A 15 mg): 1400 ng·h/mL | bioavailability ([2]; human, plasma, oral 75 mg/m^2 with HM30181A 15 mg, read-out: Individual F %): 20 to 31% | Tmax ([2]; human, plasma, oral capsules in combination with HM30181A): 3 to 4 h | half-life ([2]; human, plasma, oral capsules in combination with HM30181A, read-out: terminal phase half-life (converted)): ~56 h | Cmax as % of that observed after IV administration ([2]; oral with HM30181A vs IV): 9.5-13% | Tmax Mean % (clinical; male, human, in vivo): 207.55% | Average Time above Target (0 to last time point measured above 4 ng/ml) (clinical; male, human, in vivo, iv): 40.9 h | Dose Normalized AUC (clinical; male, human, in vivo, iv): 27.17 ng·h/mL | AUC(0-t) (clinical; male, human, in vivo, iv, 60 mg/m2, AUC0-24): 1350 to 1970 ng·h/mL | AUC(0-inf) (clinical; male, human, in vivo, iv, 60 mg/m2, AUC0-inf): 1970 ng·h/mL | AUC(0-t) (clinical; male, human, in vivo, iv, 60 mg/m2, AUC0-t): 1890 ng·h/mL | Cmax (clinical; male, human, in vivo, iv, 60 mg/m2, Cmax): 1020 to 1570 ng/mL | Tmax (clinical; male, human, in vivo, iv, 60 mg/m2, Tmax): 0.88 h | half-life (clinical; male, human, in vivo, iv, Reported half-life): 17.4 h | Average Time above Target (0 to last time point measured above 4 ng/ml) (clinical; male, human, in vivo, po): 20.5 h | Dose Normalized AUC (clinical; male, human, in vivo, po): 23.33 ng·h/mL | AUC(0-inf) (clinical; [11]): 476 ng·h/mL | half-life (clinical; [11]): 21.3 h | AUC(0-t) (clinical; male, human, in vivo, po, 75 mg/m2, AUC0-24): 313 to 336 ng·h/mL | AUC(0-inf) (clinical; male, human, in vivo, po, 75 mg/m2, AUC0-inf): 478 ng·h/mL | AUC(0-t) (clinical; male, human, in vivo, po, 75 mg/m2, AUC0-t): 395 ng·h/mL | half-life (clinical; male, human, in vivo, po, 75 mg/m2, Reported half-life): 16.4 h | Tmax (clinical; male, human, in vivo, po, 75 mg/m2, Tmax): 1.83 h | Cmax Mean % (clinical; [12]): 7.87% | t1/2 Mean % (clinical; [12]): 104.60%
